How the values were obtained:
[1] = Inhibition of mouse GAT3 expressed in HEK293 cells assessed as reduction in [3H]GABA uptake preincubated for 25 mins followed by [3H]GABA addition and measured after 4 mins by microbeta liquid scintillation counting method
[2] = molecular target: T1, Sodium- and chloride-dependent GABA transporter 2 (Mus musculus, UniProt P31649); experiment: Inhibition of mouse GAT2 expressed in HEK293 cells assessed as reduction in [3H]GABA uptake preincubated for 25 mins followed by [3H]GABA addition and measured after 10 mins by microbeta liquid scintillation counting method
T1 sequence (P31649 whole entry): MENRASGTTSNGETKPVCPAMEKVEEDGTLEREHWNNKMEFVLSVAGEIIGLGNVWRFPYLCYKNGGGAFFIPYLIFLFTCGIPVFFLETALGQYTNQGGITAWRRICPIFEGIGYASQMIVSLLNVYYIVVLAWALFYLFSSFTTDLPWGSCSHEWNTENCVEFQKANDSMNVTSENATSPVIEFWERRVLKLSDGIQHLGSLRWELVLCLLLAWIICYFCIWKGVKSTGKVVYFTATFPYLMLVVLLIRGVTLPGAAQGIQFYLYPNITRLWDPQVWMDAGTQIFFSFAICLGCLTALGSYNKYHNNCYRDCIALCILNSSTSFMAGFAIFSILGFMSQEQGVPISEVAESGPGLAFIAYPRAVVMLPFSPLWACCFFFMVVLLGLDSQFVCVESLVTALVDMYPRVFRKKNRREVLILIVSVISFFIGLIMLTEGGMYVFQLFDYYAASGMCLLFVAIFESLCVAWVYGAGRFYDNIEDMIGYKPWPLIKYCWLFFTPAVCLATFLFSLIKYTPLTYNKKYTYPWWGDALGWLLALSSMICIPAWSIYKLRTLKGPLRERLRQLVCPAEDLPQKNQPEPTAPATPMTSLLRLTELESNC

[3] = Inhibition of mouse GAT2 expressed in HEK293 cells assessed as reduction in [3H]GABA uptake preincubated for 25 mins followed by [3H]GABA addition and measured after 10 mins by microbeta liquid scintillation counting method

| SMILES | IC50 [1] [µM] | IC50 [2] [µM] | IC50 [3] [µM] |
| --- | --- | --- | --- |
| COc1ccc(C(C/C=C\CN2CCCC(C(=O)O)C2)(c2ccc(OC)cc2)c2ccc(OC)cc2)cc1 (stereo unspecified) | 85.1 |  |  |
| COc1ccc(C(/C=C\CN2CCCC(C(=O)O)C2)(c2ccc(OC)cc2)c2ccc3c(c2)OCO3)cc1 (stereo unspecified) | 45.7 |  | 61.7 |
| COc1ccc(C(/C=C\CN2CCCC(C(=O)O)C2)(c2ccc(OC)cc2)c2ccsc2)cc1 (stereo unspecified) |  |  | 89.1 |

Continued, values first:

| IC50 [1] [µM] | IC50 [2] [µM] | IC50 [3] [µM] | SMILES |
| --- | --- | --- | --- |
|  | 30.2 |  | COc1ccc(C(/C=C\CN2CCCC(C(=O)O)C2)(Cc2ccccc2)c2ccc(OC)cc2)cc1 (stereo unspecified) |
|  |  | 55 | O=C(O)C1CCCN(CC/C=C\C(c2ccccc2)(c2ccccc2)c2ccccc2)C1 (stereo unspecified) |
